Laboratory results taken from publication PMC6616128, “Liquiritin, as a Natural Inhibitor of AKR1C1, Could Interfere With the Progesterone Metabolism” (Frontiers in Physiology, 2019).
Read-outs that look alike come from different tables or passages of the source.

Biological target: T1, AKR1C1 (Homo sapiens, UniProt Q04828)
T1 sequence (Q04828 1-323): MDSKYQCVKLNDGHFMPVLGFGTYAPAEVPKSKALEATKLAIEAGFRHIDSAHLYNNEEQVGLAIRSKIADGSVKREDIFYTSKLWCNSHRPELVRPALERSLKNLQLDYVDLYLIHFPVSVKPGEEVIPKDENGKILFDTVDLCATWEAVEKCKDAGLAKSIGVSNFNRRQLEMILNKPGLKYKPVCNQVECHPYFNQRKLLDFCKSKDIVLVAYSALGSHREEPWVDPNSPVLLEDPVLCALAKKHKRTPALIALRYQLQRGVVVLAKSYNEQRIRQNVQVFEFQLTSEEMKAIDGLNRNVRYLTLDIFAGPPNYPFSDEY
Experiment: Enzyme activity (NADPH) assay with s-tetralol, recombinant GST-AKR1C1;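 note: GST-fused AKR1C1 expressed in E. coli and purified by glutathione affinity, control wells received DMSO instead of compound, duplicate samples from a single experiment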
Format: biochemical
Parameters: made in house; host or cells: Escherichia coli JM109
Settings: for enzyme activity: CON 192.295568; for remaining activity at 2 µM: read-out: ratio (activity relative to CON)

[1] = 2 μM compound, Supplementary Table 1, CON 0.0122
[2] = 2 μM compound, Supplementary Table 1
[3] = 2 μM compound, Supplementary Table 1, CON = 1
[4] = 2 μM compound, Supplementary Table 1, read-out: % inhibition

Experimental: GST-tagged recombinant AKR1C isoforms expressed JM109 was grown in Luria-Bertani broth (100 μg⋅ml-1 ampicillin, pH = 7.0) at 37°C with orbital shaking at 220 rpm. When cells achieved an OD600 nm between 0.4 and 0.6, 0.3 mM final concentration of isopropyl β-D-1-thiogalactopyranoside (IPTG) was added to the cultures and incubated for an additional 12 h at 25°C. Cells were harvested by centrifugation at 8000 g for 10 min, and the cell pellets were stored at -80°C for storage. The pellets were resuspended in 1 × PBS, pH = 7.4 and lysed by ultrasonication at ice-cold temperature using an UH-03 union instrument. The purification of glutathione-S-transferase (GST)-fusion AKR1C1, AKR1C2, and AKR1C3 were then carried out using ÄKTA systems from GE Healthcare as described in Handbook. The recombinant proteins were eluted in 50 mM Tris–HCl (pH = 8.0) with 20 mM reduced glutathione, fresh preparedly. Protein concentrations were determined using the Bradford protein assay kit. All proteins were aliquoted and stored at -80°C containing 20% glycerol.
To screen for the indicated inhibitor, the assay mixture was added with additional DMSO or 2 μM compounds. […] The inhibition patterns were determined by fitting initial velocity and inhibitor concentration into inhibition models using Graphpad Prism 6.0. All inhibition data were obtained from single experiments, with samples conducted in duplicate.
Firstly, we overexpressed recombinant human AKR1C in E. coli in the form of a GST-fusion protein, and then purified it by affinity chromatography on glutathione-Sepharose.
To screen for the inhibitors of AKR1C1, we developed a readily accessible indirect NADPH generating-based assay that can be used for high-throughput inhibitors screening. […] Wells were included containing enzyme and no inhibitor or 2 μM inhibitor.

| slope [1] | enzyme activity [2] [nmol/min/mg] | remaining activity at 2 µM [3] [%] | inhibition at 2 µM [4] [%] | Structure (SMILES) | % inhibition [2] [%] | ratio (activity relative to CON) [3] | inhibition at 2 µM [%] | slope | remaining activity at 2 µM [%] |
| --- | --- | --- | --- | --- | --- | --- | --- | --- | --- |
| 0.00928 | 146.2707 | 76.1 | 23.9 | O=c1c(O)c(-c2ccccc2)oc2cc(O)cc(O)c12 [3,5,7-Trihydroxyflavone] |  |  |  |  |  |
| 0.0121 | 191.3949 | 99.5 | 0.47 | O=C(O[C@@H]1Cc2c(O)cc(O)cc2O[C@@H]1c1cc(O)c(O)c(O)c1)c1cc(O)c(O)c(O)c1 [(−)-Epigallocatechin gallate] |  |  |  |  |  |
| 0.0123 | 194.5022 | 101 | -1.15 | C[C@@H]1O[C@@H](O[C@@H]2[C@@H](O)[C@H](OCCc3ccc(O)c(O)c3)O[C@H](CO)[C@H]2OC(=O)/C=C/c2ccc(O)c(O)c2)[C@H](O)[C@H](O)[C@H]1O [Acteoside] |  |  |  |  |  |
| 0.0129 | 202.8786 |  |  | C[C@]12C[C@@H](O)[C@@H]3C[C@@]1(O[C@@H]1O[C@H](CO)[C@@H](O)[C@H](O)[C@H]1O)[C@@]3(COC(=O)c1ccccc1)C(=O)O2 [Albiflorin] | -5.5 | 1.055 |  |  |  |
| 0.0129 | 203.0137 | 106 | -5.57 | COc1cc(C[C@H]2C(=O)OC[C@@H]2Cc2ccc(OC)c(OC)c2)ccc1O [Arctigenin] |  |  |  |  |  |
| 0.007614 | 120.0159 | 62.4 | 37.6 | O=c1c(O[C@@H]2O[C@H](CO)[C@@H](O)[C@H](O)[C@H]2O)c(-c2ccc(O)cc2)oc2cc(O)cc(O)c12 [Astragalin] |  |  |  |  |  |
| 0.009203 | 145.0548 | 75.4 | 24.6 | COc1cc2c(cc1CC=C(C)C)C(=O)C[C@@H](c1ccc(O)cc1)O2 [Bavachinin A] |  |  |  |  |  |
| 0.0114 | 180.2715 | 93.8 | 6.25 | O=C(/C=C/c1ccc(O)cc1)CC(=O)/C=C/c1ccc(O)cc1 [Bisdemethoxycurcumin] |  |  |  |  |  |
| 0.0116 | 183.0185 | 95.2 | 4.82 | COc1ccc(-c2coc3cc(O)ccc3c2=O)cc1O [Calycosin] |  |  |  |  |  |
| 0.007263 | 114.4767 |  |  | C=C1C(=O)O[C@@H]2/C=C(\C)CC/C=C(\C)CC[C@@H]12 [Costundide] | 40.47 | 0.5953 |  |  |  |
| 0.006283 | 99.03 | 51.5 | 48.5 | COc1cc(/C=C/C(=O)CC(=O)/C=C/c2ccc(O)c(OC)c2)ccc1O [Curcumin] |  |  |  |  |  |
| 0.007957 | 125.4199 | 65.2 | 34.8 | O=c1c(-c2ccc(O)cc2)coc2cc(O)ccc12 [Daidzein] |  |  |  |  |  |
| 0.0128 | 201.0772 |  |  | COc1cc(O)c2c(c1)C(=O)c1cc(C)cc(O)c1C2=O [Emodin-3-methyl ether] | -4.57 | 1.0457 |  |  |  |
| 0.0136 | 214.5874 | 112 | -11.6 | Oc1cc(O)c2c(c1)O[C@H](c1ccc(O)c(O)c1)[C@H](O)C2 [Epicatechin] |  |  |  |  |  |
| 0.0129 | 203.1488 | 106 | -5.64 | O=c1c(-c2ccc(O)cc2)coc2cc(O[C@@H]3O[C@H](CO)[C@@H](O)[C@H](O)[C@H]3O)cc(O)c12 [Genistin] |  |  |  |  |  |
| 0.008406 | 132.4903 | 68.9 | 31.1 | C[C@@H]1C(=O)O[C@H]2C[C@@]34[C@H]5C[C@@H](C(C)(C)C)[C@]36[C@@H](OC(=O)[C@@H]6O)O[C@@]4(C(=O)O5)[C@]21O [Ginkgolide A] |  |  |  |  |  |
| 0.0136 | 215.1279 | 112 | -11.9 | CC1(C)C=Cc2c(ccc3c2OC[C@@H](c2ccc(O)cc2O)C3)O1 [Glabridin] |  |  |  |  |  |
| 0.0086 | 135.5526 | 70.5 | 29.5 | COc1cc2c(=O)c(-c3ccc(O)cc3)coc2cc1O [Glycitein] |  |  |  |  |  |
| 0.00436 | 68.722 |  |  | COc1cc2c(=O)c(-c3ccc(O)cc3)coc2cc1O[C@@H]1O[C@H](CO)[C@@H](O)[C@H](O)[C@H]1O [Glycitin] | 64.26 | 0.3574 |  |  |  |
| 0.0123 | 193.4665 | 101 | -0.61 | O=c1c(O[C@@H]2O[C@H](CO)[C@H](O)[C@H](O)[C@H]2O)c(-c2ccc(O)c(O)c2)oc2cc(O)cc(O)c12 [Hyperoside] |  |  |  |  |  |
| 0.0108 | 170.1838 | 88.5 | 11.5 | CC(C)=CCOc1c2ccoc2cc2oc(=O)ccc12 [Isoimperatorin] |  |  |  |  |  |
| 0.007797 | 122.898 | 63.9 | 36.1 | O=c1c(O[C@@H]2O[C@H](CO)[C@@H](O)[C@H](O)[C@H]2O)c(-c2ccc(O)c(O)c2)oc2cc(O)cc(O)c12 [Isoquercitrin] |  |  |  |  |  |
| 0.0115 | 181.9828 | 94.6 | 5.36 | COc1ccc(-c2oc3cc(O)cc(O)c3c(=O)c2O)cc1 [Kaempferide] |  |  |  |  |  |

| Structure (SMILES) | slope [1] | enzyme activity [2] [nmol/min/mg] | remaining activity at 2 µM [3] [%] | inhibition at 2 µM [4] [%] | % inhibition [2] [%] | ratio (activity relative to CON) [3] | inhibition at 2 µM [%] | slope | remaining activity at 2 µM [%] |
| --- | --- | --- | --- | --- | --- | --- | --- | --- | --- |
| COc1c2ccoc2cc2oc(=O)ccc12 [5-Methoxypsoralen] | 0.0121 | 190.1339 | 98.9 | 1.12 |  |  |  |  |  |
| O=C(O[C@@H]1Cc2c(O)cc(O)cc2O[C@@H]1c1ccc(O)c(O)c1)c1cc(O)c(O)c(O)c1 [(−)-Epicatechin gallate] | 0.00702 | 110.6488 |  |  | 42.46 | 0.5754 |  |  |  |
| Oc1cc(O)c2c(c1)O[C@H](c1cc(O)c(O)c(O)c1)[C@H](O)C2 [(−)-Epigallocatechin] | 0.0131 | 206.076 |  |  | -7.17 | 1.0717 |  |  |  |
| CC(C)(C)[C@]1(O)CC2OC(=O)CC23C(=O)OC2OC(=O)[C@H](O)C231 (some centres unmarked) [Bilobalide] |  | 120.151 |  |  |  |  | 37.5 | 0.007623 | 62.5 |
| O=c1c(-c2ccc(O)cc2)coc2cc(O[C@@H]3O[C@H](CO)[C@@H](O)[C@H](O)[C@H]3O)ccc12 [Daidzin] | 0.013 | 204.9952 | 107 | -6.6 |  |  |  |  |  |
| C[C@@H]1CC[C@@]2(OC1)O[C@H]1C[C@H]3[C@@H]4CC=C5C[C@@H](O[C@@H]6O[C@H](CO)[C@@H](O[C@@H]7O[C@@H](C)[C@H](O)[C@@H](O)[C@H]7O)[C@H](O)[C@H]6O[C@@H]6O[C@@H](C)[C@H](O)[C@@H](O)[C@H]6O)CC[C@]5(C)[C@H]4CC[C@]3(C)[C@H]1[C@@H]2C [Dioscin] | 0.0134 | 211.8854 | 110 | -10.2 |  |  |  |  |  |
| Oc1cc(O)c2c(c1)O[C@H](c1cc(O)c(O)c(O)c1)[C@H](O)C2 [Epigallocatechin] | 0.0131 | 206.6164 | 107 | -7.45 |  |  |  |  |  |
| COc1ccc2cc1Oc1ccc(cc1)C[C@H]1c3cc(c(OC)cc3CCN1C)Oc1c(O)c(OC)cc3c1[C@H](C2)N(C)CC3 [Fangchinoline] | 0.0139 | 219.4962 | 114 | -14.2 |  |  |  |  |  |
| CC(C)=CCC[C@](C)(O[C@@H]1O[C@H](CO)[C@@H](O)[C@H](O)[C@H]1O)[C@H]1CC[C@]2(C)[C@@H]1[C@H](O)C[C@@H]1[C@@]3(C)CC[C@H](O)C(C)(C)[C@@H]3CC[C@]12C [Ginsenoside CK] | 0.0123 | 193.3764 |  |  | -0.56 | 1.0056 |  |  |  |
| CC(C)=CCOc1c2occc2cc2ccc(=O)oc12 [Imperatorin] | 0.0117 | 184.7298 | 96.1 | 3.93 |  |  |  |  |  |
| COc1cc(-c2oc3cc(O)cc(O)c3c(=O)c2O)ccc1O [Isorhamnetin] | 0.0125 | 197.0241 | 102 | -2.46 |  |  |  |  |  |
| COc1cc2c(cc1O)CC[n+]1cc3c(OC)c(OC)ccc3cc1-2.[Cl-] [Jatrorrhizine Hydrochloride] | 0.0127 | 200.7169 |  |  | -4.38 | 1.0438 |  |  |  |
